Results from patent US11518823B2, “Photoinitiators for light-curable compositions” (priority 2017, dated 2022).
Values joined by “and” are separate entries in the source; they are usually repeats but may differ in a detail not shown here. Equal values may be shown once.

Key:
[1] = photo-DSC monitoring of photopolymerization in dental dimethacrylate mixture
Protocol: All measurements were carried out at least twice, the respective tables showing the average values for the respective initiators. In the tables, RP represents the polymerization rate and is thus an indicator of the reactivity of a system. A high value means that many monomer groups are reacted at the same time and that the curing process is generally shorter. tmax is the time (in s) it takes until maximum heat development is reached and is thus an indicator of how long it takes to reach the gelling point and thus a certain initial solidity. Short times are thus more desirable. t95% is the time (in s) after which 95% of the entire reaction heat have been released and is thus an indicator of the rate at which a reaction occurs, lower values again being advantageous. DBC is the double bond conversion rate calculated based on the reaction heat released during polymerization (in J per g) of the respective formulation. For the conversion rate, it is desirable to achieve values that are as high as possible. In all formulations, the respective photoinitiator was used in an equimolar amount with respect to 1 wt % of ethyl pyruvate (1), which was the initiator having the lowest molecular weight, and weighed in accordingly, and co-initiators, if contained, were weighed in equimolar amounts with respect to the respective initiator. […] In this group of experiments, the experiments from Examples 1 to 4 and Comparative Example 1 were repeated, using a di-methacrylate mixture from the field of dental engineering as a monomer instead of the diacrylate that had been used above.

[2] = photo-DSC monitoring of photopolymerization in hexanediol diacrylate
Protocol: (§1) In the following examples, of the inventive use of compounds of formula (I) as photo-initiators, reaction mixtures containing the respective photoinitiator, the specified liquid monomer and optionally a specified co-intiator were produced and cured for 10 min under a nitrogen atmosphere by exposure to an OmniCure® S2000 mercury lamp having a wave length filter of 320 to 500 nm and an UV light intensity of 1 W/cm^2, while the progress of the reactions was monitored by photo-DSC type NETSCH DSC 204 F1 Phoenix.
(§2) All measurements were carried out at least twice, the respective tables showing the average values for the respective initiators.
(§3) In the tables, RP represents the polymerization rate and is thus an indicator of the reactivity of a system. A high value means that many monomer groups are reacted at the same time and that the curing process is generally shorter. tmax is the time (in s) it takes until maximum heat development is reached and is thus an indicator of how long it takes to reach the gelling point and thus a certain initial solidity. Short times are thus more desirable. t95% is the time (in s) after which 95% of the entire reaction heat have been released and is thus an indicator of the rate at which a reaction occurs, lower values again being advantageous. DBC is the double bond conversion rate calculated based on the reaction heat released during polymerization (in J per g) of the respective formulation. For the conversion rate, it is desirable to achieve values that are as high as possible.
(§4) In all formulations, the respective photoinitiator was used in an equimolar amount with respect to 1 wt % of ethyl pyruvate (1), which was the initiator having the lowest molecular weight, and weighed in accordingly, and co-initiators, if contained, were weighed in equimolar amounts with respect to the respective initiator. Subsequently, 12±0.5 mg of the reaction mixtures were weighed into DSC aluminum pans, and the pans were covered with cover glasses.

[3] = photo-DSC monitoring of photopolymerization in divinyl adipate; settings: monomer DVA, co-initiator DMAB
Protocol: In the following examples, of the inventive use of compounds of formula (I) as photo-initiators, reaction mixtures containing the respective photoinitiator, the specified liquid monomer and optionally a specified co-intiator were produced and cured for 10 min under a nitrogen atmosphere by exposure to an OmniCure® S2000 mercury lamp having a wave length filter of 320 to 500 nm and an UV light intensity of 1 W/cm^2, while the progress of the reactions was monitored by photo-DSC type […]1 Phoenix. All measurements were carried out at least twice, the respective tables showing the average values for the respective initiators. In the tables, RP represents the polymerization rate and is thus an indicator of the reactivity of a system. A high value means that many monomer groups are reacted at the same time and that the curing process is generally shorter. tmax is the time (in s) it takes until maximum heat development is reached and is thus an indicator of how long it takes to reach the gelling point and thus a certain initial solidity. Short times are thus more desirable. t95% is the time (in s) after which 95% of the entire reaction heat have been released and is thus an indicator of the rate at which a reaction occurs, lower values again being advantageous. DBC is the double bond conversion rate calculated based on the reaction heat released during polymerization (in J per g) of the respective formulation. For the conversion rate, it is desirable to achieve values that are as high as possible. In all formulations, the respective photoinitiator was used in an equimolar amount with respect to 1 wt % of ethyl pyruvate (1), which was the initiator having the lowest molecular weight, and weighed in accordingly, and co-initiators, if contained, were weighed in equimolar amounts with respect to the respective initiator. Subsequently, 12±0.5 mg of the reaction mixtures were weighed into DSC aluminum pans, and the pans were covered with cover glasses.

[4] = curing test in silicone mold, Intelli-Ray 400 W UV oven; settings: 1 g HDDA with 1 wt % initiator, 100% power, after a few seconds
[5] = photo-DSC of hydrogel formulation with PEG700DA and 50 wt % water
Protocol: as §1, §2, §3, §4
(§5) PBQ was used as a commercially available reference initiator, with MDEA as a co-initiator. The ketoesters ethyl pyruvate (1) and dimethylfurandione (8) can be used as novel initiators without any co-initiator. Due to its longwave absorption maximum (λmax=378 nm instead of 330 nm for compound (1)), compound (8) can also be used using visible light which is harmless for cells.

[6] = longwave absorption maximum; format: physicochemical
Text: as §5

[7] = test system: mouse fibroblast cell line L929; format: cell-based
Text: This may constitute an additional advantage for biological applications in which hydrogels are commonly used.

[8] = dental formulation DDM, co-initiator DMAB (Table 12)
[9] = methacrylates, co-initiator DMAB (Table 10)
[10] = monomer DDM, co-initiator DMAB (Table 7)
[11] = acrylate (HDDA), co-initiator (Table 10, C8)
[12] = monomer HDDA, co-initiator DMAB
[13] = monomer HDDA, co-initiator MDEA
[14] = monomer HDDA, co-initiator shown only as drawing (Table 11)
[15] = monomer HDDA, co-initiator shown only as drawing (Table 13)
[16] = monomer HDDA, co-initiator shown only as drawing, reference is benzophenone/amine system (Table 11)
[17] = monomer HDDA, type I initiators, without any co-initiators (Table 5)
[18] = monomer HDDA, type I, without any co-initiators
[19] = monomer HDDA, no co-initiator listed (Table 3)
[20] = HDDA, without any co-initiator (Table 10)
[21] = monomer HDDA, co-initiator thiol

O=C(c1ccccc1)c1ccccc1 [BP, Benzophenone, reference compound]
DBC [1, 8]: 49%
RP (polymerization rate) [1, 8]: 21 mmol/L/s
t95% [1, 8]: 143 s
DBC [1, 9]: 49%
RP (polymerization rate) [1, 9]: 21 mmol/L/s
t95% [1, 9]: 143 s
DBC [1, 10]: 50%
RP (polymerization rate) [1, 10]: 21.4 mmol/L/s
t95% [1, 10]: 146.5 s
DBC [2, 11]: 69%
RP (polymerization rate) [2, 11]: 93 mmol/L/s
t95% [2, 11]: 69 s
DBC (double bond conversion) [2, 12]: 68.9%
RP (polymerization rate) [2, 12]: 96 mmol/L/s
t95% (time after which 95% of reaction heat released) [2, 12]: 85.5 s
DBC [2, 13]: 69.3%
RP (polymerization rate) [2, 13]: 109 mmol/L/s
t95% [2, 13]: 77.0 s
DBC [2, 14]: 69%
t95% [2, 14]: 69 s
DBC [2, 15]: 69%
RP (polymerization rate) [2, 15]: 93 mmol/L/s
t95% [2, 15]: 69 s
RP (polymerization rate) [2, 16]: 93 mmol/L/s
Area [3]: 642 J/g
DSC [3]: 4.37 mW · mg^−1

CC(=O)C(=O)OCCN(C)C [Compound 10, N,N′-dimethylaminopyruvate]
result of curing test [4]: transparent, hard sample rod was obtained

CCOC(=O)C(=O)C(C)(C)Br [Compound 5, 3-bromo-3-methyl-2-oxobutanoic Acid Ethyl Ester]
RP (polymerization rate) [2, 17]: 239 mmol/L/s
DBC [2, 18]: 62.1%
t95% [2, 18]: 40.0 s

COC(=O)C(=O)C(C)(C)C [Compound 4, 2-oxo-3,3-dimethylbutanoic Acid Methyl Ester]
DBC [1, 10]: 51%
RP (polymerization rate) [1, 10]: 55.9 mmol/L/s
t95% [1, 10]: 69.5 s
DBC (double bond conversion) [2, 12]: 59.1%
RP (polymerization rate) [2, 12]: 170 mmol/L/s
t95% (time after which 95% of reaction heat released) [2, 12]: 42.5 s
DBC [2, 13]: 64.6%
RP (polymerization rate) [2, 13]: 234 mmol/L/s
t95% [2, 13]: 41.0 s
DBC [2, 19]: 64.6%
RP (polymerization rate) [2, 19]: 214 mmol/L/s
t95% [2, 19]: 53.5 s

CCC(=O)C(=O)OC [Compound 2, 2-oxobutanoic Acid Methyl Ester]
DBC [1, 10]: 57%
RP (polymerization rate) [1, 10]: 71.2 mmol/L/s
t95% [1, 10]: 85.5 s
DBC (double bond conversion) [2, 12]: 60.9%
RP (polymerization rate) [2, 12]: 204 mmol/L/s
t95% (time after which 95% of reaction heat released) [2, 12]: 40.5 s

CC1(C)COC(=O)C1=O [Compound 8, 4,4-dimethyldihydrofuran-2,3-dione]
DBC [1, 9]: 54%
RP (polymerization rate) [1, 9]: 52 mmol/L/s
t95% [1, 9]: 90 s
DBC ([5]; without co-initiator): 56%
RP (polymerization rate) ([5]; without co-initiator): 26 mmol/L/s
t95% ([5]; without co-initiator): 78 s
longwave absorption maximum λmax [6]: 378 nm
DBC [2, 20]: 66%
RP (polymerization rate) [2, 20]: 189 mmol/L/s
t95% [2, 20]: 58 s

CN(C)CC(O)COc1ccc(C(=O)c2ccccc2)cc1.Cl (centres unmarked) [BPQ, 3-(4-benzoylphenoxy)-2-hydroxy-N,N-dimethylpropane-1-amine Hydrochloride, reference compound]
DBC ([5]; co-initiator MDEA): 50%
RP (polymerization rate) ([5]; co-initiator MDEA): 30 mmol/L/s
t95% ([5]; co-initiator MDEA): 87 s
concentration at which significant toxic effects were observed [7]: 8000 µM

CCOC(=O)C(=O)C(C)(C)O [Compound E5]
DBC (double bond conversion) [2, 12]: 63.1%
RP (polymerization rate) [2, 12]: 218 mmol/L/s
t95% (time after which 95% of reaction heat released) [2, 12]: 73.0 s

CCOC(=O)CCC(=O)C(=O)OCC [Compound 9, α-Ketoglutaric Acid Diethyl Ester]
DBC [1, 8]: 53%
RP (polymerization rate) [1, 8]: 66 mmol/L/s
t95% [1, 8]: 85 s
DBC [2, 14]: 67%
t95% [2, 14]: 58 s
RP (polymerization rate) [2, 16]: 201 mmol/L/s

CCOC(=O)C(C)=O [Compound 1, 2-Oxopropanoic Acid Ethyl Ester]
DBC [1, 10]: 57%
RP (polymerization rate) [1, 10]: 74.5 mmol/L/s
t95% [1, 10]: 83.0 s
DBC ([5]; without co-initiator): 48%
RP (polymerization rate) ([5]; without co-initiator): 33 mmol/L/s
t95% ([5]; without co-initiator): 83 s
longwave absorption maximum λmax [6]: 330 nm
DBC (double bond conversion) [2, 12]: 66.5%
RP (polymerization rate) [2, 12]: 230 mmol/L/s
t95% (time after which 95% of reaction heat released) [2, 12]: 41.7 s
DBC [2, 19]: 69.3%
RP (polymerization rate) [2, 19]: 210 mmol/L/s
t95% [2, 19]: 56.0 s
Area [3]: 466 J/g
DSC [3]: 1.7 mW · mg^−1

CCOC(=O)C(=O)c1ccccc1 [PGO, Ethyl Phenylglyoxylate, reference compound]
DBC [2, 19]: 75.1%
RP (polymerization rate) [2, 19]: 204 mmol/L/s
t95% [2, 19]: 63.0 s

CC(C)(Br)C(=O)c1ccccc1 [BD, 2-bromo-2-methyl-1-phenylpropan-1-one, reference compound]
RP (polymerization rate) [2, 17]: 146 mmol/L/s
DBC [2, 18]: 57.6%
t95% [2, 18]: 62.5 s

C=C(C)C(=O)OCCOC(=O)CCC(=O)C(=O)OCCOC(=O)C(=C)C [Compound 11, α-Ketoglutaric Acid di(hydroxyethylmethacrylate) Ester]
DBC [1, 8]: 52%
RP (polymerization rate) [1, 8]: 57 mmol/L/s
t95% [1, 8]: 93 s
DBC [2, 14]: 64%
t95% [2, 14]: 53 s
RP (polymerization rate) [2, 16]: 203 mmol/L/s

CCOC(=O)C(=O)C(C)C [Compound 3, 2-oxo-3-Methylbutanoic Acid Ethyl Ester]
DBC [1, 10]: 57%
RP (polymerization rate) [1, 10]: 81.5 mmol/L/s
t95% [1, 10]: 58.5 s
DBC (double bond conversion) [2, 12]: 65.8%
t95% (time after which 95% of reaction heat released) [2, 12]: 36.6 s
RP (polymerization rate) ([2]; monomer HDDA, co-initiator DMAB, listed as E3): 241 mmol/L/s and 241.0 mmol/L/s
DBC [2, 13]: 65.2%
RP (polymerization rate) [2, 13]: 228 mmol/L/s
t95% [2, 13]: 56.5 s
RP (polymerization rate) ([2]; monomer HDDA, co-initiator pentaerythritol-tetrakis(3-mercaptopropionate) (thiol)): 233.5 mmol/L/s
DBC [2, 21]: 68.0%
t95% [2, 21]: 45.0 s
